Reference: patent US7667042B2, “Stable polymorphic forms of an anticonvulsant” (Sun Pharma Advanced Research Company Ltd., priority 2003, dated 2010)
Values joined by “and” are separate entries in the source; they are usually repeats but may differ in a detail not shown here. Identical values can stand only once. Counter-ions that a name gives are not always drawn.

Legend:
[1] = Particle size analysis by HELOS (H1551) & RODOS; assay type: physicochemical; details: hydrochloride
Source text: Particle Size Analysis (Analysed by HELOS (H1551) & RODOS)

[2] = reported in prior art, cited from earlier work; for Thermal stability: elevated temperature, hydrochloride
[3] = XRD analysis after 6 months storage at ambient conditions (polymorph stability); assay type: physicochemical; details: hydrochloride
Source text: In embodiment of the present invention the stable polymorph IV of tiagabine hydrochloride may be obtained in particle size with volume mean diameter (VMD) less than 20 microns.

[4] = Solubility of tiagabine hydrochloride in various solvents at room temperature; assay type: physicochemical; details: 100 mg sample

Compound: Cc1ccsc1C(=CCCN1CCC[C@@H](C(=O)O)C1)c1sccc1C [Form I, tiagabine hydrochloride]
- Volume mean diameter (VMD) [1]: 60.2 microns
- Thermal stability [2]: less stable at elevated temperature
- Hygroscopicity [2]: non-hygroscopic
- Stability [2]: stable

Compound: Cc1ccsc1C(=CCCN1CCC[C@@H](C(=O)O)C1)c1sccc1C [Form II, tiagabine hydrochloride]
- Thermal stability [2]: thermally stable
- Hygroscopicity [2]: non-hygroscopic

Compound: Cc1ccsc1C(=CCCN1CCC[C@@H](C(=O)O)C1)c1sccc1C [Form IV, tiagabine hydrochloride]
- Change in x-ray diffraction pattern on storage (polymorphic stability) [3]: matches the XRD of ‘0’ day sample
- Change in x-ray diffraction pattern on storage (polymorphic stability) ([3]; listed as polymorph IV): no change in the x-ray diffraction pattern
- Volume mean diameter (VMD) [1]: 16.7 microns and 19.8 microns

Compound: Cc1ccsc1C(=CCCN1CCC[C@@H](C(=O)O)C1)c1sccc1C [tiagabine hydrochloride]
- Solubility: volume of solvent ([4]; Acetone): 24 mL
- Solubility: volume of solvent ([4]; Acetonitrile): >100 mL
- Solubility: volume of solvent ([4]; DMF): 0.5 mL
- Solubility: volume of solvent ([4]; Ethanol): 0.3 mL
- Solubility: volume of solvent ([4]; Ethylacetate): >100 mL
- Solubility: volume of solvent ([4]; IPA): 1.3 mL
- Solubility: volume of solvent ([4]; Methanol): 0.2 mL
- Solubility: volume of solvent ([4]; Toluene): >100 mL
- Solubility: volume of solvent ([4]; Water): 0.7 mL
